Laboratory results as given in EP3770254A1, “LIQUID P[…] TRANSGLUTAMINASE” (AJINOMOTO CO., INC., priority 2018, dated 2019).
Structures can show the parent of a compound that is named as a salt.

What follows are molecules tested against T1, transglutaminase (Streptomyces mobaraensis, UniProt P81453) (assay: Experimental Example 1: accelerated test by high temperature storage, transglutaminase activity by hydroxamate method). Settings: conclusion of Experimental Example 1; additive 10 wt%, 44°C 24 hr.
T1 sequence (P81453 77-407): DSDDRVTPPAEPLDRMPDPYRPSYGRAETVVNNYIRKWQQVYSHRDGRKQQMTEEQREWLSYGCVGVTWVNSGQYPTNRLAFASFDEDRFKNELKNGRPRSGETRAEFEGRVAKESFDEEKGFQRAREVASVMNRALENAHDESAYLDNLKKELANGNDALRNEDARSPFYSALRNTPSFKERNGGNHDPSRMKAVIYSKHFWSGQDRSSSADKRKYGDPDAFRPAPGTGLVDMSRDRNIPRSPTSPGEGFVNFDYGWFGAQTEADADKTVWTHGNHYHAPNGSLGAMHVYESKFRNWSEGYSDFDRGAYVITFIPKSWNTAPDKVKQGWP
Format: physicochemical, microorganism
Procedure: The enzyme activity of transglutaminase can be measured and calculated by, for example, the hydroxamate method. That is, benzyloxycarbonyl-L-glutaminyl glycine is reacted with hydroxylamine as a substrate to form an iron complex of hydroxamic acid formed in the aforementioned reaction in the presence of trichloroacetic acid, the absorbance at 525 nm is measured, and the amount of hydroxamic acid produced is determined from the calibration curve, whereby the enzyme activity can be calculated.
The stability of transglutaminase in each liquid preparation of the above-mentioned Examples 1 - 5 and Comparative Example 1 was evaluated by an accelerated test by high temperature storage as follows.
Respective liquid preparations of the above-mentioned Examples 1 - 5 and Comparative Example 1 were stored at 4°C and 44°C for 24 hr, and the transglutaminase activity in the liquid preparation was measured by the above-mentioned hydroxamate method.
A liquid preparation obtained by dissolving only transglutaminase in a phosphate buffer was used as a control and treated in the same manner.

| Structure (SMILES) | transglutaminase stabilizing effect in a liquid preparation |
| --- | --- |
| O=C(O)C1CCCN1 (stereo not drawn) [proline, pyrrolidine-2-carboxylic acid] | has a transglutaminase stabilizing effect |
| N[C@@H](CCC(=O)[O-])C(=O)[O-].[Na+].[Na+] [sodium glutamate] | has a transglutaminase stabilizing effect |
| Cl.NCCCC[C@H](N)C(=O)O [lysine hydrochloride, reference compound] | not found |
| N[C@@H](CC(=O)[O-])C(=O)[O-].[Na+].[Na+] [sodium aspartate] | has a transglutaminase stabilizing effect |
| NC(CO)C(=O)O (stereo not drawn) [serine, 2-amino-3-hydroxypropionic acid] | has a transglutaminase stabilizing effect |
| NCC(=O)O [glycine, 2-aminoacetic acid] | has a transglutaminase stabilizing effect |

Each molecule was assayed against T1, transglutaminase (assay: not given). Settings: conclusion of Experimental Example 4; organic acid salt 10 wt%, 44°C 24 hr.

| Structure (SMILES) | stabilization of transglutaminase |
| --- | --- |
| O=C([O-])[C@H](O)[C@@H](O)[C@H](O)[C@H](O)CO.[Na+] [sodium gluconate] | can also stabilize transglutaminase |
| O=C(O)CC(O)(CC(=O)O)C(=O)O [sodium citrate] | can also stabilize transglutaminase |
| CC(=O)O [sodium acetate] | can also stabilize transglutaminase |
